The values that follow come from US20250092065A1, “2-(INDAZOL-5-YL)-6-(PIPERIDIN-4-YL)-1,7-NAPHTHYRIDINE DERIVATIVES AND RELATED COMPOUNDS AS MODULATORS FOR SPLICING NUCLEIC ACIDS AND FOR THE TREATMENT OF PROLIFERATIVE DISEASES” (REMIX THERAPEUTICS INC., priority 2022, published 2025).

For data set [1], the system named is Target C. The experiment in a line: HiBiT protein abundance assay, Target C (K562 HiBiT knock-in). The note with it: HiBiT knock-in K562 cells, 24 hours, top dose 10 μM. It counts as cell-based, human. The procedure, abridged:
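K562 HiBiT knock-in cells (10000/well) were treated 24 h at 37° C with a 10-point 3-fold dilution series (top 10 μM final, ≤0.25% DMSO). HiBiT luminescence was read after lytic LgBiT detection. Percent response used unmodified K562 and DMSO-treated knock-in controls, and IC50 came from a four-parameter fit at 50% of untreated.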

For data set [2], the system named is K562 cells. The experiment in a line: Cell Titer Glo 2.0 cell viability (toxicity) assay, K562. The note with it: 500 cells/well, 72 hours.
Data set [3] deals with HTT. Briefly: HiBiT protein abundance assay, HTT (K562 HiBiT knock-in). It counts as cell-based, human. The note with it: HiBiT knock-in K562 cells, 24 hours, top dose 10 μM. The procedure, abridged:
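Tagged-protein levels were measured as HiBiT/LgBiT luminescence in lysed K562 knock-in cells exposed to serially diluted compound (up to 10 μM final) for 24 hours. A four-parameter logistic regression of control-normalized signal yielded the IC50.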

In data set [4] the test system is Target C. The experiment in a line: RT-qPCR canonical junction panel assay, Target C mRNA. It counts as cell-based. The note with it: Table 4, read-out: Target C IC50 (decrease in CJ mRNA levels). The procedure, abridged: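 IC50 is the concentration giving 50% CJ decrease, from a 4-parameter logistic fit of percent response; response derived from ΔΔCt against housekeeper and DMSO over a fixed ΔCt window, with canonical exon-junction qPCR in compound-treated K562 or A673 cells.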

`Cn1cc2cc(-c3ccc4nc([C@@H]5CCNC6(CC6)C5)ccc4n3)c(O)cc2n1` (single isomer, unassigned) [Compound 495]: the IC50 was less than 0.1 µM in data set [1], less than 0.1 µM in data set [3] and 0.1 to 1 µM in data set [4]. For the same molecule, the “Effect of Exemplary Compounds on Cell Viability, K562” value (“Effect of Exemplary Compounds” below) in data set [2] was “B (B represents 100-1000 nM)”.

For `Cn1cc2cc(-c3ccc4nc([C@H]5CCNC6(CC6)C5)ccc4n3)c(O)cc2n1` (single isomer, unassigned) [Compound 496], the figures for the IC50 in data set [1], in data set [3] and in data set [4] were less than 0.1 µM, less than 0.1 µM and 0.1 to 1 µM, respectively. Also, the “Effect of Exemplary Compounds” value in data set [2] is “B (B represents 100-1000 nM)”.

With `Cc1nc2cc(O)c(-c3ccc4nc([C@H]5CCNC6(CC6)C5)ccc4n3)cc2o1` (single isomer, unassigned) [Compound 497], the IC50 in data set [1], in data set [3] and in data set [4] was less than 0.1 µM in each case. Further, in data set [2], the “Effect of Exemplary Compounds” value was “A (A represents <100 nM)”.

On to `Cc1nc2cc(O)c(-c3ccc4nc([C@@H]5CCNC6(CC6)C5)ccc4n3)cc2o1` (single isomer, unassigned) [Compound 498], for which the results for the IC50 in data set [1], in data set [3] and in data set [4] were less than 0.1 µM, less than 0.1 µM and 0.1 to 1 µM, respectively. The “Effect of Exemplary Compounds” value in data set [2] is reported as “B (B represents 100-1000 nM)”.

For `CN[C@@H]1CCN(c2ccc3nc(-c4cn5cc(C)nc5c(C)c4O)ncc3n2)C1` (single isomer, unassigned) [Compound 504], the IC50 in data set [1], in data set [3] and in data set [4] was 0.1 to 1 µM throughout. Further, the “Effect of Exemplary Compounds” value in data set [2] is reported as “B (B represents 100-1000 nM)”.

As to `CNC(=O)c1nc(-c2cc3cn(C)nc3c(C)c2O)nc2ccc(N3CCN[C@@H](C)C3)cc12` (single isomer, unassigned) [Compound 512], the results for the IC50 in data set [1], in data set [3] and in data set [4] were 0.1 to 1 µM, 0.1 to 1 µM and 1 to 10 µM, respectively. Further, the “Effect of Exemplary Compounds” value in data set [2] is “A (A represents <100 nM)”.

Regarding `CN[C@@H]1CCN(c2ccc3nc(-c4cc5cn(C)nc5c(C)c4O)ncc3c2)C1` (single isomer, unassigned) [Compound 521], the IC50 in data set [1] was 0.1 to 1 µM; in data set [3] it was less than 0.1 µM; in data set [4], 0.1 to 1 µM. In addition, in data set [2], the “Effect of Exemplary Compounds” value was “A (A represents <100 nM)”.

Regarding `CNC(=O)c1nc(-c2cc3cn(C)nc3c(C)c2O)nc2ccc(N3C[C@@H](C)N[C@H](C)C3)cc12` (single isomer, unassigned) [Compound 653], the IC50 in data set [1] was 0.1 to 1 µM; in data set [3] it was less than 0.1 µM; in data set [4] it was 0.1 to 1 µM. In addition, the “Effect of Exemplary Compounds” value in data set [2] was “A (A represents <100 nM)”.

Take `Cc1c(O)c(-c2ncc3cc(N4C[C@@H](C)N[C@H](C)C4)ccc3n2)cc2cn(C)nc12` (single isomer, unassigned) [Compound 661]: the concentration for half-maximal inhibition (IC50) in data set [1], in data set [3] and in data set [4] was 0.1 to 1 µM throughout. For the same molecule, in data set [2], the “Effect of Exemplary Compounds” value is on record as “B (B represents 100-1000 nM)”.

For `CNC(=O)c1nc(-c2cc3cn(C)nc3c(F)c2O)nc2ccc(N3C[C@@H](C)N[C@H](C)C3)cc12` (single isomer, unassigned) [Compound 668], the IC50 lay within 0.1 to 1 µM in data set [1], 0.1 to 1 µM in data set [3] and 1 to 10 µM in data set [4]. Moreover, the “Effect of Exemplary Compounds” value in data set [2] is “A (A represents <100 nM)”.

As for `CNC(=O)c1nc(-c2cc3cn(C)nc3c(F)c2O)nc2ccc(N3C[C@H](C)N[C@@H](C)C3)cc12` (single isomer, unassigned) [Compound 669], the IC50 lay in the range of 0.1 to 1 µM in data set [1], 0.1 to 1 µM in data set [3] and 1 to 10 µM in data set [4]. The “Effect of Exemplary Compounds” value in data set [2] is “A (A represents <100 nM)”.

Consider `CNC(=O)c1nc(-c2cc3cn(C)nc3cc2O)nc2ccc(N3C[C@H](C)N[C@@H](C)C3)cc12` (single isomer, unassigned) [Compound 676], for which the IC50 was 0.1 to 1 µM in data set [1], 0.1 to 1 µM in data set [3] and more than 10 µM in data set [4]. The “Effect of Exemplary Compounds” value in data set [2] is listed as “A (A represents <100 nM)”.

With `CNC(=O)c1nc(-c2cc3cn(C)nc3cc2O)nc2ccc(N3C[C@@H](C)N[C@H](C)C3)cc12` (single isomer, unassigned) [Compound 677], the IC50 fell in the range of 0.1 to 1 µM in data set [1], 0.1 to 1 µM in data set [3] and 1 to 10 µM in data set [4]. Moreover, the “Effect of Exemplary Compounds” value in data set [2] is listed as “B (B represents 100-1000 nM)”.

In the case of `Cc1cn2cc(-c3ccc4cc(N5C[C@H](C)N[C@@H](C)C5)cc(F)c4n3)cc(F)c2n1` (single isomer, unassigned) [Compound 705, 2,2,2-trifluoroacetate], the IC50 in data set [1], in data set [3] and in data set [4] was 0.1 to 1 µM in each case. For the same molecule, the “Effect of Exemplary Compounds” value in data set [2] is listed as “A (A represents <100 nM)”.

Regarding `Cn1cc2cc(-c3ncc4nc(C5CCNCC5)ccc4n3)c(O)c(F)c2n1` [Compound 155], the IC50 was less than 0.1 µM in data set [1], less than 0.1 µM in data set [3] and 0.1 to 1 µM in data set [4]. In data set [2], the “Effect of Exemplary Compounds” value is “A (A represents <100 nM)”.

`Cc1nc2cc(O)c(-c3ccc4nc(N5CCNC(C(C)(C)C)C5)ccc4n3)cc2o1` (stereo not shown) [Compound 492]: the IC50 fell in the range of 1 to 10 µM in data set [1], 0.1 to 1 µM in data set [3] and 1 to 10 µM in data set [4]. Also, the “Effect of Exemplary Compounds” value in data set [2] is reported as “C (C represents 1000-9999 nM)”.

On to `Cc1nc2cc(O)c(-c3ccc4nc(N5CC[C@@H](N(C)C(C)(C)C)C5)ccc4n3)cc2o1` [Compound 493], for which the IC50 in data set [1], in data set [3] and in data set [4] was less than 0.1 µM in each case. Moreover, the “Effect of Exemplary Compounds” value in data set [2] was “A (A represents <100 nM)”.

As for `Cc1c(O)c(-c2nc(C(=O)N(C)C)c3cc(N4CCNCC4)ccc3n2)cc2cn(C)nc12` [Compound 502, 2-(6-hydroxy-2,7-dimethylindazol-5-yl)-N,N-dimethyl-6-(piperazin-1-yl)quinazoline-4-carboxamide], the IC50 in data set [1], in data set [3] and in data set [4] was 1 to 10 µM each time. In addition, the “Effect of Exemplary Compounds” value in data set [2] was “C (C represents 1000-9999 nM)”.

In the case of `CCNC(=O)c1nc(-c2cc3cn(C)nc3c(C)c2O)nc2ccc(N3CCNCC3)cc12` [Compound 503, N-ethyl-2-(6-hydroxy-2,7-dimethylindazol-5-yl)-6-(piperazin-1-yl)quinazoline-4-carboxamide], the figures for the IC50 in data set [1], in data set [3] and in data set [4] were 0.1 to 1 µM, less than 0.1 µM and 0.1 to 1 µM, respectively. The “Effect of Exemplary Compounds” value in data set [2] is reported as “A (A represents <100 nM)”.

For `CNC(=O)c1nc(-c2cc(F)c3nc(C)cn3c2)nc2ccc(N3CCNCC3)cc12` [Compound 505, 2-{8-fluoro-2-methylimidazo[1,2-a]pyridin-6-yl}-N-methyl-6-(piperazin-1-yl) quinazoline-4-carboxamide], the IC50 in data set [1], in data set [3] and in data set [4] was 0.1 to 1 µM in each case. For the same molecule, the “Effect of Exemplary Compounds” value in data set [2] was “B (B represents 100-1000 nM)”.

Regarding `CNC(=O)c1nc(-c2cc3cn(C)nc3c(F)c2O)nc2ccc(N3CCNCC3)cc12` [Compound 506, 2-(7-fluoro-6-hydroxy-2-methylindazol-5-yl)-N-methyl-6-(piperazin-1-yl)quinazoline-4-carboxamide], the IC50 in data set [1], in data set [3] and in data set [4] was 0.1 to 1 µM in each case.

Consider `CNC(=O)c1nc(-c2cc3cn(C)nc3c(C)c2O)nc2ccc(N3CCC(N(C)C)CC3)cc12` [Compound 507, 6-[4-(dimethylamino)piperidin-1-yl]-2-(6-hydroxy-2,7-dimethylindazol-5-yl)-N-methylquinazoline-4-carboxamide], for which the IC50 in data set [1] was in the range of 1 to 10 µM; in data set [3] it was 0.1 to 1 µM; in data set [4] it was 1 to 10 µM. Besides, in data set [2], the “Effect of Exemplary Compounds” value is on record as “A (A represents <100 nM)”.

As to `CNc1nc(-c2cc3cn(C)nc3c(C)c2O)nc2ccc(N3CCNCC3)cc12` [Compound 508, 2,7-dimethyl-5-[4-(methylamino)-6-(piperazin-1-yl)quinazolin-2-yl]indazol-6-ol], the IC50 in data set [1], in data set [3] and in data set [4] was more than 10 µM each time.

On to `Cc1c(O)c(-c2nc(N(C)C)c3cc(N4CCNCC4)ccc3n2)cc2cn(C)nc12` [Compound 509, 5-[4-(dimethylamino)-6-(piperazin-1-yl)quinazolin-2-yl]-2,7-dimethylindazol-6-ol], for which the 50% inhibitory concentration (IC50) in data set [1], in data set [3] and in data set [4] was more than 10 µM in each case.

For `CNC(=O)c1nc(-c2cc3cn(C)nc3c(C)c2O)nc2ccc(N3CCC(NC)C3)cc12` (stereo not shown) [Compound 510, 2-(6-hydroxy-2,7-dimethylindazol-5-yl)-N-methyl-6-[3-(methylamino)pyrrolidin-1-yl]quinazoline-4-carboxamide], the IC50 is 0.1 to 1 µM in data set [1], less than 0.1 µM in data set [3] and 0.1 to 1 µM in data set [4]. In addition, in data set [2], the “Effect of Exemplary Compounds” value was “A (A represents <100 nM)”.
